Source: patent US9409914B2, “Triazolo[4,5-d]pyrimidine derivatives” (Merck Patent GmbH, priority 2012, dated 2016)
Values belong to the compound of their own block, whether it stands above or below them.

Columns and labels:
[1] = target: T1, GCN2 (Homo sapiens, UniProt Q9P2K8); test: GCN2 enzyme assay (TR-FRET Lanthascreen, phosphorylation of GFP-eIF2alpha); type: biochemical; conditions: 10 μM ATP, 80 nM GFP-eIF2alpha, 30 nM GCN2, room temperature
How it was run: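 Two-step TR-FRET (Lanthascreen) format: GCN2 incubated at room temperature with 10 μM ATP and 80 nM GFP-labelled eIF2alpha, then stopped with EDTA. Phospho-eIF2alpha detected by Tb-labelled antibody, excitation 340 nm; activity taken from the 520/495 nm emission ratio.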
Target sequence in this assay (Q9P2K8 whole entry, species assumed): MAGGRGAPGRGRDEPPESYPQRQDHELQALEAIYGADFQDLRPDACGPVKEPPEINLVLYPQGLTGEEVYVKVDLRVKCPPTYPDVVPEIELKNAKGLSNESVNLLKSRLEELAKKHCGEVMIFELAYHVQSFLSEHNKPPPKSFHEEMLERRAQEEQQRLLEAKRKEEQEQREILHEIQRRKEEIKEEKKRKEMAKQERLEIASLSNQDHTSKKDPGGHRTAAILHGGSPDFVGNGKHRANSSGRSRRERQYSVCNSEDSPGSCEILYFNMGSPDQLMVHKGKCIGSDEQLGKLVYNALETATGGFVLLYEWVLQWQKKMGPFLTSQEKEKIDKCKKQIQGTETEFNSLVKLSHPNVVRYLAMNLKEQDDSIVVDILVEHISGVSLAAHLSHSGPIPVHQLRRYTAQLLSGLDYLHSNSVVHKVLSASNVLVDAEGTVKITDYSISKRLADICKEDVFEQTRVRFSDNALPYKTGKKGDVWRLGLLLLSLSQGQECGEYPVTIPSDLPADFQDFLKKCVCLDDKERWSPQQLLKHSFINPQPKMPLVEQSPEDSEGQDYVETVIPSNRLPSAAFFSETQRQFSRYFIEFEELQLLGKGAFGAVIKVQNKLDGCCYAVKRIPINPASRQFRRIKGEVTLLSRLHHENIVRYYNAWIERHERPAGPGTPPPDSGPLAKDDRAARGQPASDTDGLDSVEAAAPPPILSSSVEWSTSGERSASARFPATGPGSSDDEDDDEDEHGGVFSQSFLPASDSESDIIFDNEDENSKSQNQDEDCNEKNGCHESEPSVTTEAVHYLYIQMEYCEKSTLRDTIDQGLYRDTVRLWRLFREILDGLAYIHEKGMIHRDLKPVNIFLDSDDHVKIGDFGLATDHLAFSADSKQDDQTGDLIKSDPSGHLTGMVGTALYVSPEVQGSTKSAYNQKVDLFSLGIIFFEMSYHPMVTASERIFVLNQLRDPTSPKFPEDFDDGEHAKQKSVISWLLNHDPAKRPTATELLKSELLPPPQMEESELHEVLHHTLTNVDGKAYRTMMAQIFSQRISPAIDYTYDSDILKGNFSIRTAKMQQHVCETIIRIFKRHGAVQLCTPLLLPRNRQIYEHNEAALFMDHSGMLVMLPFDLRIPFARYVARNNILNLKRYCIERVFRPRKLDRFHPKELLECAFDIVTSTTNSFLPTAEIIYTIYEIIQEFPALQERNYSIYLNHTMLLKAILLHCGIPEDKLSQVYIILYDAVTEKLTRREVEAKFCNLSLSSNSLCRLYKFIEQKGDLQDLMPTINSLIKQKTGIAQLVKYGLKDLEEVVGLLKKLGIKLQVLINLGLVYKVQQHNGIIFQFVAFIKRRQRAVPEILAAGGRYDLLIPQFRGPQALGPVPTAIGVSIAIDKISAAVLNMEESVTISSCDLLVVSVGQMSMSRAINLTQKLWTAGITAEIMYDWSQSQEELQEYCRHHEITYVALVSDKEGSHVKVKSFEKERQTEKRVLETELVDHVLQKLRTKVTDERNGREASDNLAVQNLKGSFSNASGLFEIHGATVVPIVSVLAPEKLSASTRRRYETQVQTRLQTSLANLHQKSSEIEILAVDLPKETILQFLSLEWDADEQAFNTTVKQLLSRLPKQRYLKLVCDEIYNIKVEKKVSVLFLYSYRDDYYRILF

[2] = target: T1, GCN2; test: Cellular assay for GCN2 activity (phospho-eIF2alpha immunocytochemistry, tryptophanol-stimulated U2OS cells); type: cell-based; design: endogenous in cells; host or cells: U2OS; conditions: 2 hours compound, then 600 μM tryptophanol 30 minutes, anti-phospho-eIF2alpha, read-out: IC50 GCN2 (cell assay)
Procedure: Cellular Assay for the Determination of Compound Activities
Human U2OS cells (2000 cells/well) are seeded into 384-well plates and incubated for 20 hours.
The next day, the cells are treated with the test compounds and incubated for 2 hours. Then, tryptophanol, at a final concentration of 600 μM, is added to the cells and those are incubated for 30 minutes.
The analysis of cellular GCN2 activities is done by immunocytochemistry. Briefly, cells are fixated on the well surfaces by formaldehyde and permeabilised with Triton X-100. The primary antibody (anti-phospho-eIF2alpha (Ser51, Cell Signalling Technology, #3398) is incubated on the treated cells for 20 hours, followed by a 60 minutes incubation of the secondary antibody (anti-rabbit-IgG-Alexa 488; Molecular Probes #11008). The analysis and quantification of phosphorylated GCN2 is done by scanning the plates in the Acumen Explorer system (TTPLabtech). The obtained data are normalised against the untreated control wells (DMSO only) and expressed as % effect values. The determination of IC50 values is done by using the Graph Pad Prism software.
Target sequence in this assay (Q9P2K8 whole entry): as the sequence (Q9P2K8 whole entry, species assumed) above

Structure (SMILES): NC(=O)c1ccc(-n2nnc3cnc(Nc4cnn(C5CCOCC5)c4)nc32)cc1 [Compound A80, 4-{5-[1-(tetrahydro-pyran-4-yl)-1H-pyrazol-4-ylamino]-[1,2,3]triazolo[4,5-d]pyrimidin-3-yl}-benzamide]
- IC50 [1]: 300 to 3000 nM
- IC50 [2]: < 300 nM

Structure (SMILES): c1cnc2ccc(-n3nnc4cnc(Nc5cnn(C6CCOCC6)c5)nc43)cc2c1 [Compound A82, (3-quinolin-6-yl-3H-[1,2,3]triazolo[4,5-d]pyrimidin-5-yl)-[1-(tetrahydro-pyran-4-yl)-1H-pyrazol-4-yl]-amine]
- IC50 [1]: 300 to 3000 nM
- IC50 [2]: 300 to 3000 nM

Structure (SMILES): COCCOc1ccc(-n2nnc3cnc(Nc4cnn([C@H]5CC[C@@H](O)CC5)c4)nc32)cc1 [Compound A107, 4-(4-{3-[4-(2-methoxy-ethoxy)-phenyl]-3H-[1,2,3]triazolo[4,5-d]pyrimidin-5-ylamino}-pyrazol-1-yl)-cyclohexanol]
- IC50 [1]: < 300 nM
- IC50 [2]: 300 to 3000 nM

Structure (SMILES): COCCOc1ccc(-n2nnc3cnc(Nc4cnn([C@H]5CC[C@H](O)CC5)c4)nc32)cc1 [Compound A108, 4-(4-{3-[4-(2-methoxy-ethoxy)-phenyl]-3H-[1,2,3]triazolo[4,5-d]pyrimidin-5-ylamino}-pyrazol-1-yl)-cyclohexanol]
- IC50 [1]: < 300 nM
- IC50 [2]: 3000 to 50000 nM

Structure (SMILES): CN1CCC(n2cc(Nc3ncc4nnn(-c5ccc(F)c(Cl)c5)c4n3)cn2)CC1 [Compound A111, [3-(3-chloro-4-fluoro-phenyl)-3H-[1,2,3]triazolo[4,5-d]pyrimidin-5-yl]-[1-(1-methyl-piperidin-4-yl)-1H-pyrazol-4-yl]-amine]
- IC50 [1]: 300 to 3000 nM
- IC50 [2]: 3000 to 50000 nM

Structure (SMILES): CCOc1ccc(-n2nnc3cnc(Nc4cnn(CCN5CCOCC5)c4)nc32)cc1 [Compound A115, [3-(4-ethoxy-phenyl)-3H-[1,2,3]triazolo[4,5-d]pyrimidin-5-yl]-[1-(2-morpholin-4-yl-ethyl)-1H-pyrazol-4-yl]-amine]
- IC50 [1]: < 300 nM
- IC50 [2]: 3000 to 50000 nM

Structure (SMILES): CCn1cc(Nc2ncc3nnn(-c4ccc(C(=O)OC)cc4)c3n2)cn1 [Compound A117, 4-[5-(1-ethyl-1H-pyrazol-4-ylamino)-[1,2,3]triazolo[4,5-d]pyrimidin-3-yl]-benzoic acid methyl ester]
- IC50 [1]: < 300 nM
- IC50 [2]: 300 to 3000 nM

Structure (SMILES): CN1CCC(n2cc(Nc3ncc4nnn(-c5cccc(F)c5)c4n3)cn2)CC1 [Compound A118, [3-(3-fluoro-phenyl)-3H-[1,2,3]triazolo[4,5-d]pyrimidin-5-yl]-[1-(1-methyl-piperidin-4-yl)-1H-pyrazol-4-yl]-amine]
- IC50 [1]: < 300 nM
- IC50 [2]: 300 to 3000 nM

Structure (SMILES): CC(C)(O)c1ccc(-n2nnc3cnc(Nc4cnn(C5CCOCC5)c4)nc32)cc1 [Compound A119, 2-(4-{5-[1-(tetrahydro-pyran-4-yl)-1H-pyrazol-4-ylamino]-[1,2,3]triazolo[4,5-d]pyrimidin-3-yl}-phenyl)-propan-2-ol]
- IC50 [1]: < 300 nM
- IC50 [2]: 300 to 3000 nM

Structure (SMILES): CN1CCC(n2cc(Nc3ncc4nnn(-c5ccc(F)c(F)c5)c4n3)cn2)CC1 [Compound A120, [3-(3,4-difluoro-phenyl)-3H-[1,2,3]triazolo[4,5-d]pyrimidin-5-yl]-[1-(1-methyl-piperidin-4-yl)-1H-pyrazol-4-yl]-amine]
- IC50 [1]: 300 to 3000 nM
- IC50 [2]: 3000 to 50000 nM

Structure (SMILES): CCn1cc(Nc2ncc3nnn(-c4ccc(C(C)(C)O)cc4)c3n2)cn1 [Compound A121, 2-{4-[5-(1-ethyl-1H-pyrazol-4-ylamino)-[1,2,3]triazolo[4,5-d]pyrimidin-3-yl]-phenyl}-propan-2-ol]
- IC50 [1]: < 300 nM
- IC50 [2]: 300 to 3000 nM

Structure (SMILES): Fc1cccc(-n2nnc3cnc(Nc4cnn(C5CCOCC5)c4)nc32)c1 [Compound A122, [3-(3-fluoro-phenyl)-3H-[1,2,3]triazolo[4,5-d]pyrimidin-5-yl]-[1-(tetrahydro-pyran-4-yl)-1H-pyrazol-4-yl]-amine]
- IC50 [1]: < 300 nM
- IC50 [2]: 300 to 3000 nM

Second part, the compound after the results:

- IC50 [1]: < 300 nM
- IC50 [2]: 300 to 3000 nM
Structure (SMILES): Fc1cc(-n2nnc3cnc(Nc4cnn(C5CCOCC5)c4)nc32)ccc1Cl [Compound A81, [3-(4-chloro-3-fluoro-phenyl)-3H-[1,2,3]triazolo[4,5-d]pyrimidin-5-yl]-[1-(tetrahydro-pyran-4-yl)-1H-pyrazol-4-yl]-amine]

- IC50 [1]: < 300 nM
- IC50 [2]: 3000 to 50000 nM
Structure (SMILES): CCn1cc(-n2nnc3cnc(Nc4cnn(C5CCOCC5)c4)nc32)cn1 [Compound A83, [3-(1-ethyl-1H-pyrazol-4-yl)-3H-[1,2,3]triazolo[4.5-d]pyrimidin-5-yl]-[1-(tetrahydro-pyran-4-yl)-1H-pyrazol-4-yl]-amine]

- IC50 [1]: < 300 nM
- IC50 [2]: 300 to 3000 nM
Structure (SMILES): CCn1cc(Nc2ncc3nnn(-c4ccc5c(c4)NC(=O)C5(C)C)c3n2)cn1 [Compound A84, 6-[5-(1-ethyl-1H-pyrazol-4-ylamino)-[1,2,3]triazolo[4,5-d]pyrimidin-3-yl]-3,3-dimethyl-1,3-dihydro-indol-2-one]

- IC50 [1]: < 300 nM
- IC50 [2]: 300 to 3000 nM
Structure (SMILES): CC1(C)C(=O)Nc2cc(-n3nnc4cnc(Nc5cnn(C6CCOCC6)c5)nc43)ccc21 [Compound A85, 3,3-dimethyl-6-{5-[1-(tetrahydro-pyran-4-yl)-1H-pyrazol-4-ylamino]-[1,2,3]triazolo[4,5-d]pyrimidin-3-yl}-1,3-dihydro-indol-2-one]

- IC50 [1]: < 300 nM
- IC50 [2]: 300 to 3000 nM
Structure (SMILES): COCCOc1ccc(-n2nnc3cnc(Nc4cnn(C5CCOCC5)c4)nc32)cc1 [Compound A87, {3-[4-(2-methoxy-ethoxy)-phenyl]-3H-[1,2.3]triazolo[4,5-d]pyrimidin-5-yl}-[1-(tetrahydro-pyran-4-yl)-1H-pyrazol-4-yl]-amine]

- IC50 [1]: < 300 nM
- IC50 [2]: 300 to 3000 nM
Structure (SMILES): CCn1cc(Nc2ncc3nnn(-c4ccc5[nH]ncc5c4)c3n2)cn1 [Compound A91, (1-ethyl-1H-pyrazol-4-yl)-[3-(1H-indazol-5-yl)-3H-[1,2,3]triazolo[4,5-d]pyrimidin-5-yl]-amine]

- IC50 [1]: < 300 nM
- IC50 [2]: < 300 nM
Structure (SMILES): c1nn(C2CCOCC2)cc1Nc1ncc2nnn(-c3ccc4cn[nH]c4c3)c2n1 [Compound A92, [3-(1H-indazol-6-yl)-3H-[1,2,3]triazolo[4,5-d]pyrimidin-5-yl]-[1-(tetrahydro-pyran-4-yl)-1H-pyrazol-4-yl]-amine]

- IC50 [1]: < 300 nM
- IC50 [2]: 3000 to 50000 nM
Structure (SMILES): CN1CCC(n2cc(Nc3ncc4nnn(-c5ccc6[nH]ncc6c5)c4n3)cn2)CC1 [Compound A93, [3-(1H-indazol-5-yl)-3H-[1,2,3]triazolo[4,5-d]pyrimidin-5-yl]-[1-(1-methyl-piperidin-4-yl)-1H-pyrazol-4-yl]-amine]

- IC50 [1]: < 300 nM
- IC50 [2]: 3000 to 50000 nM
Structure (SMILES): CN1CCC(n2cc(Nc3ncc4nnn(-c5ccc6[nH]c(C(F)(F)F)nc6c5)c4n3)cn2)CC1 [Compound A95, [1-(1-methyl-piperidin-4-yl)-1H-pyrazol-4-yl]-[3-(2-trifluoromethyl-1H-benzoimidazol-5-yl)-3H-[1,2,3]triazolo[4,5-d]pyrimidin-5-yl]-amine]

- IC50 [1]: < 300 nM
- IC50 [2]: 300 to 3000 nM
Structure (SMILES): COCCOc1ccc(-n2nnc3cnc(Nc4cnn(C5CCNC5)c4)nc32)cc1 (centres unmarked) [Compound A96, {3-[4-(2-methoxy-ethoxy)-phenyl]-3H-[1,2,3]triazolo[4,5-d]pyrimidin-5-yl}-(1-pyrrolidin-3-yl-1H-pyrazol-4-yl)-amine]

- IC50 [1]: < 300 nM
- IC50 [2]: 300 to 3000 nM
Structure (SMILES): CCOc1ccc(-n2nnc3cnc(Nc4cnn(CCC5CCNCC5)c4)nc32)cc1 [Compound A97, [3-(4-ethoxy-phenyl)-3H-[1,2,3]triazolo[4,5-d]pyrimidin-5-yl]-[1-(2-piperidin-4-yl-ethyl)-1H-pyrazol-4-yl]-amine]

- IC50 [1]: < 300 nM
- IC50 [2]: 3000 to 50000 nM
Structure (SMILES): COCCOc1ccc(-n2nnc3cnc(Nc4cnn(C5CCN(C(C)=O)C5)c4)nc32)cc1 (centres unmarked) [Compound A99, 1-[3-(4-{3-[4-(2-methoxy-ethoxy)-phenyl]-3H-[1,2,3]triazolo[4,5-d]pyrimidin-5-ylamino}-pyrazol-1-yl)-pyrrolidin-1-yl]-ethanone]

- IC50 [1]: < 300 nM
- IC50 [2]: 3000 to 50000 nM
Structure (SMILES): CCOc1ccc(-n2nnc3cnc(Nc4cnn(CCC5CCN(C(C)=O)CC5)c4)nc32)cc1 [Compound A100, 1-[4-(2-{4-[3-(4-ethoxy-phenyl)-3H-[1,2,3]triazolo[4,5-d]pyrimidin-5-ylamino]-pyrazol-1-yl}-ethyl)-piperidin-1-yl]-ethanone]

- IC50 [1]: < 300 nM
- IC50 [2]: 3000 to 50000 nM
Structure (SMILES): CN1CCC(n2cc(Nc3ncc4nnn(-c5ccc6nccnc6c5)c4n3)cn2)CC1 [Compound A101, [1-(1-methyl-piperidin-4-yl)-1H-pyrazol-4-yl]-(3-quinoxalin-6-yl-3H-[1,2,3]triazolo[4,5-d]pyrimidin-5-yl)-amine]

- IC50 [1]: < 300 nM
- IC50 [2]: < 300 nM
Structure (SMILES): O[C@H]1CC[C@H](n2cc(Nc3ncc4nnn(-c5ccc(Cl)c(F)c5)c4n3)cn2)CC1 [Compound A103, 4-{4-[3-(4-chloro-3-fluoro-phenyl)-3H-[1,2,3]triazolo[4,5-d]pyrimidin-5-ylamino]-pyrazol-1-yl}-cyclohexanol]

- IC50 [1]: < 300 nM
- IC50 [2]: 3000 to 50000 nM
Structure (SMILES): CCn1cc(Nc2ncc3nnn(-c4cnn(CC)c4)c3n2)cn1 [Compound A106, (1-ethyl-1H-pyrazol-4-yl)-[3-(1-ethyl-1H-pyrazol-4-yl)-3H-[1,2,3]triazolo[4,5-d]pyrimidin-5-yl]-amine]
